Key:
[1] = target: T1, IDO1 (Homo sapiens, UniProt P14902); test: Hela cell-based IDO1 assay; settings: Hela cells
Method in brief: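 HeLa cells were seeded at 8000 per well in 96-well plates in phenol red-free DMEM with 10% FBS. After 4 hours, DMSO-diluted compound dilutions were added with IFN-γ (final 100 ng/mL) and 0.4 mM L-Trp, and cells were kept 48 hours at 37 °C, 5% CO2. Supernatant was deproteinised with trichloroacetic acid, and kynurenine was measured at 480 nm after adding 2% 4-(dimethylamino)benzaldehyde. Potency came from four-parameter logistic fits in XLfit.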

[2] = target: T2, cellular TDO2 in HEK293-TDO2 cells (Homo sapiens, UniProt P48775); test: 293-TDO2 cell-based assay (Kyn colorimetric); settings: 48 hours of incubation
T2 construct: expressed in transfected cells; host or cells: HEK293 (ATCC), stably transfected
Experimental: The inhibitory activity of TDO2 inhibitors is determined by using a colorimetric reaction to measure Kyn generated from L-Trp (L-Tryptophon) oxidation by cellular TDO2 in HEK293-TDO2 cells stably transfected with a plasmid expression of Tryptophan 2,3-dioxygenase (for short, 293-TDO2).
HEK293 cells were obtained from the American Type Culture Collection and 293-TDO2 were recovered in 10% FBS-containing phenol red-free DMEM medium. Cells were plated onto a 96-well plate (100 μl/well) at 10000 cells per well and kept at 37° C. in a humidified incubator supplied with 5% CO2. 4 hours later, Compounds at different concentrations diluted in dimethylsulfoxide (DMSO) were added to plate. Cells were kept at 37° C. in a humidified incubator supplied with 5% CO2. After 48 hours of incubation, 100 μl supernatant from each well was removed to a new plate. The protein in the medium was precipitated with the addition of 8 μl 6N trichloroacetic acid. The plate was incubated at 60° C. for 30 minutes and then centrifugation at 2500 rpm for 10 minutes to remove sediments. 80 μl supernatants were carefully removed to a new clean plate and added with an equal volume of 2% 4-(Dimethylamino) benzaldehyde (D2004, sigma) dissolved in glacial acetic acid. The absorbance at 480 nm wavelength derived from Kyn was measured using a PHERAstar FS plate reader (BMG LABTECH). The IC50 for each compound was derived from fitting the dose-response data to the four-parameter logistic model by using XLfit software (IDBS).

[3] = target: T1, IDO1; test: IDO1 enzymatic assay; format: biochemical; parameters: His tag (N); made in house; host or cells: E. coli; settings: read-out: Enzyme IC50 IDO1
Method in brief: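 Recombinant IDO1 carrying an N-terminal His tag and purified from E. coli was used at 50 nM with test compound, 1.3 mM D-tryptophan, 5 mM L-ascorbic acid, methylene blue and 0.4 mg/mL catalase in 50 mM potassium phosphate pH 7.5 containing 0.1% BSA. This mixture was incubated at 24 °C for 1.5 hours, after which N'-formylkynurenine formation was followed continuously at 321 nm for 1 hour and activity was taken as the slope. IC50 was derived from the enzyme activity remaining as compound concentration increased.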

T2 sequence (P48775 whole entry): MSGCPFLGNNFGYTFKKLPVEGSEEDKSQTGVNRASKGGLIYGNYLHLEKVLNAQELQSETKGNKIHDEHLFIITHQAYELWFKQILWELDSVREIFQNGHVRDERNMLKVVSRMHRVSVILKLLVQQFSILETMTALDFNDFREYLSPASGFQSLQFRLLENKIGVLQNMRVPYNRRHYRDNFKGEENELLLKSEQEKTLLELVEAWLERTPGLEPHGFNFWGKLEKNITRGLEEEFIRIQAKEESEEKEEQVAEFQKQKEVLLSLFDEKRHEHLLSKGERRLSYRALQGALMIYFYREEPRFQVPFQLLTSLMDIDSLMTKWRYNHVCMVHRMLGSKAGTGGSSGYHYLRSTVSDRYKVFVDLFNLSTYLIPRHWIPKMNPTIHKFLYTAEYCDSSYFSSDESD
T1 sequence (P14902 whole entry): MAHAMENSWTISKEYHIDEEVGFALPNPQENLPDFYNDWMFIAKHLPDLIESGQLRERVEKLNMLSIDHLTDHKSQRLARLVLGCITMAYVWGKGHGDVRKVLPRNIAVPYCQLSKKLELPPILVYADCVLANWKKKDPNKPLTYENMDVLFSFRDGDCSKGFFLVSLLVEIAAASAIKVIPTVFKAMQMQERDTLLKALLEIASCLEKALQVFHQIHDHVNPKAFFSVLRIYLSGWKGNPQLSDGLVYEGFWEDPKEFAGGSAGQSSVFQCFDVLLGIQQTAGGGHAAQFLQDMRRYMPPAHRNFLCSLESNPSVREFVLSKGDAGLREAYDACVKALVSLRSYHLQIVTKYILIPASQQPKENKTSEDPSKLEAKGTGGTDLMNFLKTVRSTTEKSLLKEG

| EC50 [1] [µM] | EC50 [2] [µM] | IC50 [3] [µM] | Compound |
| --- | --- | --- | --- |
| 4.31 | > 10 | 3.7 | O[C@@H](c1c(C2CC2)ccc2cncn12)[C@H]1CC[C@H](c2ccc(Oc3ccccc3)cc2)CC1 (single isomer, unassigned) [Example D120b] |
| 0.103 | > 10 | 0.018 | Nc1ccc([C@H]2CC[C@H]([C@H](O)c3c(C4CC4)ccc4cncn34)CC2)cc1 (single isomer, unassigned) [Example D122a] |
| > 10 | > 10 | 5.2 | Nc1ccc([C@H]2CC[C@H]([C@@H](O)c3c(C4CC4)ccc4cncn34)CC2)cc1 (single isomer, unassigned) [Example D122b] |
| 0.138 | > 10 | 0.019 | CNC(=O)c1ccc([C@H]2CC[C@H]([C@H](O)c3c(C4CC4)ccc4cncn34)CC2)cc1 (single isomer, unassigned) [Example D124a] |
| 5.23 | > 10 | 0.97 | CNC(=O)c1ccc([C@H]2CC[C@H]([C@@H](O)c3c(C4CC4)ccc4cncn34)CC2)cc1 (single isomer, unassigned) [Example D124b] |
| 0.46 | > 10 | 0.014 | CN(C)C(=O)c1ccc([C@H]2CC[C@H]([C@H](O)c3c(C4CC4)ccc4cncn34)CC2)cc1 (single isomer, unassigned) [Example D125a] |
| 9.77 | > 10 | 1.6 | CN(C)C(=O)c1ccc([C@H]2CC[C@H]([C@@H](O)c3c(C4CC4)ccc4cncn34)CC2)cc1 (single isomer, unassigned) [Example D125b] |
| 0.031 | > 10 | 0.018 | O[C@H](c1c(C2CC2)ccc2cncn12)[C@H]1CC[C@H](c2ccc(F)c(F)c2)CC1 (single isomer, unassigned) [Example D126a] |
| 6.52 | > 10 | > 10 | O[C@@H](c1c(C2CC2)ccc2cncn12)[C@H]1CC[C@H](c2ccc(F)c(F)c2)CC1 (single isomer, unassigned) [Example D126b] |
| 0.083 | > 10 | 0.016 | O[C@H](c1c(C2CC2)ccc2cncn12)[C@H]1CC[C@H](c2ccc(F)cc2F)CC1 (single isomer, unassigned) [Example D127a] |
| 4.62 | > 10 | 2.7 | O[C@@H](c1c(C2CC2)ccc2cncn12)[C@H]1CC[C@H](c2ccc(F)cc2F)CC1 (single isomer, unassigned) [Example D127b] |
| 0.127 | > 10 | 0.019 | O[C@H](c1c(C2CC2)ccc2cncn12)[C@H]1CC[C@H](c2ccc(Cl)c(F)c2)CC1 (single isomer, unassigned) [Example D128a] |
| 8.57 | > 10 | > 10 | O[C@@H](c1c(C2CC2)ccc2cncn12)[C@H]1CC[C@H](c2ccc(Cl)c(F)c2)CC1 (single isomer, unassigned) [Example D128b] |
| 0.056 | > 10 | 0.021 | O[C@H](c1c(C2CC2)ccc2cncn12)[C@H]1CC[C@H](c2ccc(F)c(Cl)c2)CC1 (single isomer, unassigned) [Example D129a] |
| 5.12 | > 10 | 7.67 | O[C@@H](c1c(C2CC2)ccc2cncn12)[C@H]1CC[C@H](c2ccc(F)c(Cl)c2)CC1 (single isomer, unassigned) [Example D129b] |
| 0.203 | > 10 | 0.03 | OC(c1c(C2CC2)ccc2cncn12)[C@H]1CC[C@H](c2ccc(F)cc2Cl)CC1 (single isomer, unassigned) [Example D130a] |
| 9.37 | > 10 | > 10 | OC(c1c(C2CC2)ccc2cncn12)[C@H]1CC[C@H](c2ccc(F)cc2Cl)CC1 (single isomer, unassigned) [Example D130b] |

From patent US10882856B2 (BeiGene, Ltd., priority 2017, dated 2021)
